{
  "source": "patent US20180098969A1",
  "about": "“HODGKIN LYMPHOMA THERAPY” (Purdue Pharmaceutical Products L.P., priority 2016, published 2018)",
  "key": {"[1]": {"tested_on": "KMH2 cell line", "assay": "Clonogenic survival in methylcellulose", "format": "cell-based, human", "details": "lowest doses 0.1 and 0.5 μmol", "description": "(§1) In all examples, the human Hodgkin lymphoma-derived cell lines L428, L428-c, KMH2, L591, L540, L1236, HDLM2 and SUP-HD were obtained from Dr Steffen Junker (Aarhus University Denmark). All cell lines were cultured in Gibco RPMI 1640 medium supplemented with Glutamax, 10% FBS and antibiotics at 37° C. […] The immunophenotype, P53 status and MSI characterization of the Hodgkin lymphoma cell lines was determined using anti-CD30, CD15, CD20 and CD14 antibodies.\n(§2) This test was performed on four Hodgkin lymphoma cell lines (L428, L428s, KMH2 and L540). Each was cultured with EDO-S101 at doses of 0, 0.1, 0.5, 1, 10 and 20 μmol in DMSO. The cell lines were cultured in methylcellulose (Stem cell Technologies) at a concentration of 10^5/ml at 37° C. and 5% CO2. The surviving fraction was determined by measuring the viability of colonies generated before and after exposure. Only colonies with more than 50 cells were counted. Each data point represents the average and SD from three independent experiments performed in triplicate."}, "[2]": {"tested_on": "L428s", "assay": "Clonogenic survival in methylcellulose", "format": "cell-based, human", "details": "very low doses 0.1 and 0.5 μmol", "description": "as §1, §2"}, "[3]": {"tested_on": "L428", "assay": "Clonogenic survival in methylcellulose", "format": "cell-based, human", "details": "very low doses 0.1 and 0.5 μmol", "description": "as §1, §2"}, "[4]": {"tested_on": "L540 cell line", "assay": "Clonogenic survival in methylcellulose", "format": "cell-based, human", "details": "any dose (0.1 to 20 μmol)", "description": "as §1, §2"}, "[5]": {"tested_on": "Hodgkin lymphoma cell lines (KMH2, HDML2, L540, L1236 and L426)", "assay": "IC50 comparison of bendamustine, vorinostat and EDO-S101", "format": "cell-based, human", "details": "tumour cells of Hodgkin lymphoma", "description": "(a) Five Hodgkin lymphoma cell lines (KMH2, HDML2, L540, L1236 and L426) were cultured separately in the presence of bendamustine, vorinostat and EDO-S101 dissolved in DMSO at 37° C. L1236-derived Hodgkin lymphoma cell lines were selected as they have an acquired stable resistance to bendamustine (R100) or an ability to display continuous growth upon extended exposure to sub-lethal concentrations of bendamustine (R25, R50 and R75). A detailed description of the L1236-R Hodgkin lymphoma cell lines is disclosed in De Filippi et al, ASH 2015, Abstract. # 2479. In these tests, the L1236-100R bendamustine resistant strain was used."}, "[6]": {"tested_on": "L1236-R100", "assay": "Viable cell count and IC50, bendamustine-resistant line", "format": "cell-based, human", "description": "(b) The bendamustine-resistant Hodgkin lymphoma cell line L1236-R100, non-resistant L1236 Hodgkin lymphoma cell line cultured in DMSO L1236/DMSO and L1236 […] Control cells were cultured in the same final concentration of DMSO. The number of viable cells was assessed at 24, 48 and 72 hours through a Countess™ automated cell counter (Invitrogen), each experiment being repeated three times and the results given being the mean of the three results ±SD."}, "[7]": {"tested_on": "L428 cells", "assay": "Cytogenetic investigation of cells from xenografted mice", "format": "in vivo, NSG mice", "details": "different doses including single 60 mg/kg", "description": "Separated cells were cultured in the presence of RPMI 1640 supplemented with 10% Fetal Calf Serum (FCS) and antibiotics, colcemid (0.1 μg/ml) added 2 h before harvesting, and the slides with metaphase chromosomes prepared following the standard methanol/acetic acid (3/1, v/v) procedure.\nFour new cell lines were generated after one month of in vitro culture following 24 hour of exposure to EDO-S101. Fluorescence in situ hybridysation (FISH) was performed using a combination of standard procedures from the recommended protocols for chromosomal analysis, following telomere and centromere staining, using peptide nucleic acid (PNA) probes in order to detect unstable chromosomal aberrations and to delimit the chromosome territory. M-FISH was performed using multi-FISH probes (Metasystems GmbH, Altlussheim, Germany), according to the manufacturer's recommendations on the same slide. Images of hybridized metaphases were captured using a charge coupled device camera (Zeiss, Thornwood, N.Y.) coupled to a Zeiss Axioplan microscope and processed using ISIS software (Metasystems).\nThe ocular tumour masses were harvested, as well as cells which infiltrated the liver. Five new cell lines were established from ocular tumours and the livers of both control mice (PBS or vehicle). […]"}},
  "data": [
    {"smiles": "Cn1c(CCCCCCC(=O)NO)nc2cc(N(CCCl)CCCl)ccc21", "note": "[EDO-S101]", "values": [
      {"measurement": "clones observed", "setting": "[1]", "result": "only a few clones"},
      {"measurement": "clones observed", "setting": "[2]", "result": "only macrophagic clones being observed"},
      {"measurement": "clones observed", "setting": "[3]", "result": "only macrophagic clones being observed"},
      {"measurement": "clones observed", "setting": "[4]", "result": "No clone was observed"},
      {"measurement": "IC50s compared with those of bendamustine", "setting": "[5]", "result": "about ten-fold lower"},
      {"measurement": "anti-proliferative activity compared with vorinostat", "setting": "[6]", "result": "greater than that of vorinostat"},
      {"measurement": "viable cells", "setting": "[6]; 48 hours after treatment with 50 μM", "result": "no viable cells being observed"},
      {"measurement": "metaphases or cell lines from cells of treated mice", "setting": "[7]", "result": "not possible to obtain either metaphases from direct culture or establish cell lines"}
    ]}
  ]
}
